{"source": "PubChem BioAssay AID816", "about": "(SRMLSC, 2007)", "note": "The source made the active and inactive calls. The rule behind the calls is not given here."}
{"test_system": "S. cerevisiae GAL1 promoter reporter activation counterscreen", "assay": "yeast Gal1p promoter activation – S. cerevisiae, artefact control for yeast lifespan extension project (AID 816);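 note: yeast growth read after 24 h of incubation with compounds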"}
{"molecule": "Cn1nnnc1SCCNCC#Cc1ccccc1", "EC50": "> 40 µM (inactive)"}
{"molecule": "CC(C)C(c1nnnn1Cc1ccccc1)N1CCN(Cc2ccc3c(c2)OCO3)CC1", "note": "(configuration not stated)", "EC50": "> 40 µM (inactive)"}
{"molecule": "CCOc1ccc(N=Cc2c(O)c3ccccc3oc2=O)cc1", "EC50": "> 40 µM (inactive)"}
{"molecule": "CC(C)Cc1nn2c(=O)cc(O)nc2s1", "EC50": "> 40 µM (inactive)"}
{"molecule": "CCc1ccc2nc(N3C(=O)C(O)=C(C(=O)c4ccco4)C3c3cccs3)sc2c1", "note": "(configuration not stated)", "EC50": "> 40 µM (inactive)"}
{"molecule": "O=C(Nc1cccc(Cl)c1)c1ccc2c(=O)n3c(nc2c1)CCCCC3", "EC50": "> 40 µM (inactive)"}
{"molecule": "CCCCCCN1CC(C(=O)OCC)C(=O)C1=O", "note": "(configuration not stated)", "EC50": "> 40 µM (inactive)"}
{"molecule": "N#C/C(=C\\c1ccccc1)C(=O)N(c1ccccn1)C1CCCCC1", "EC50": "> 40 µM (inactive)"}
{"molecule": "COc1ccc(CNC(=O)C2CCN(c3nc(OC)nc(OC)n3)CC2)cc1", "EC50": "> 40 µM (inactive)"}
{"molecule": "CC(C)(C)C1CCc2[nH]nc(C(=O)O)c2C1", "note": "(configuration not stated)", "EC50": "> 40 µM (inactive)"}
{"molecule": "CCC(=NCCc1c(C)[nH]c2ccc(C)cc12)C1=C(O)CC(c2ccccc2)CC1=O", "note": "(configuration not stated)", "EC50": "> 40 µM (inactive)"}
{"molecule": "CN1C(=O)/C(=C/c2cccn2-c2ccc3ccccc3c2)C(=O)NC1=S", "EC50": "> 40 µM (inactive)"}
{"molecule": "O=C(COc1ccc2ccccc2c1)Nc1cccc(C(=O)Nc2ccccc2C(=O)O)c1", "EC50": "> 40 µM (inactive)"}
{"molecule": "O=C1C(C2=C(O)c3ccccc3C2=O)=Nc2ccccc21", "EC50": "> 40 µM (inactive)"}
{"molecule": "CCCCC(CC)Cn1c2nc3ccccc3nc2c2c(=N)oc(C)nc21", "note": "(configuration not stated)", "EC50": "> 40 µM (inactive)"}
{"molecule": "O=c1c(-c2ccc(Cl)cc2)[n+]([O-])c2ccccc2n1OCc1ccccn1", "EC50": "> 40 µM (inactive)"}
{"molecule": "Oc1ccc2ccccc2c1C=Nc1ccc(N2CCOCC2)cc1", "EC50": "> 40 µM (inactive)"}
{"molecule": "COc1ccc(-c2cc(C(F)(F)F)nc(S(C)(=O)=O)n2)cc1", "EC50": "> 40 µM (inactive)"}
{"molecule": "O=c1c2[nH]c3ccccc3c2ncn1Cc1ccco1", "EC50": "> 40 µM (inactive)"}
{"molecule": "CCCCCOC(=O)CSc1nc2c(c(=O)[nH]c(=O)n2C)n1CCc1ccccc1", "EC50": "> 40 µM (inactive)"}
{"molecule": "CC(=O)Oc1c(C(=O)c2nnc(C)o2)c(=O)n(C)c2ccccc12", "EC50": "> 40 µM (inactive)"}
{"molecule": "COc1ccc(O)c(C(=O)c2cc(C#N)c(=O)n(CC3CCCO3)c2)c1", "note": "(configuration not stated)", "EC50": "> 40 µM (inactive)"}
{"molecule": "Cc1ccc(C(=O)OC2=CC(=O)CC(C)(C)C2)cc1", "EC50": "> 40 µM (inactive)"}
{"molecule": "COC(=O)C1=C(C(=O)OC)SC(=C2C(=S)C(C)(C)N(C(=O)C(C)C)c3ccccc32)S1", "EC50": "> 40 µM (inactive)"}
{"molecule": "COc1ccc2c(=O)c3c(=O)n(Cc4ccco4)c(-c4ccco4)nc3oc2c1", "EC50": "> 40 µM (inactive)"}
{"molecule": "COc1ccc(/C=C(/C(=O)c2ccc(Cl)cc2Cl)n2cncn2)cc1", "EC50": "> 40 µM (inactive)"}
{"molecule": "CN(Cc1c(O)ccc2c1oc(=O)c1ccccc12)C1CCCCC1", "EC50": "> 40 µM (inactive)"}
{"molecule": "Cc1nn(-c2c(Cl)cc(Cl)cc2Cl)c(=O)c2ccccc12", "EC50": "> 40 µM (inactive)"}
{"molecule": "CCCC(=Nc1ccccc1)C1=C(O)C(C(=O)OC)C(C)(C)CC1=O", "note": "(configuration not stated)", "EC50": "> 40 µM (inactive)"}
{"molecule": "CCCCCCCC(=O)N/N=C(/C)c1c(O)cc(C)oc1=O", "EC50": "> 40 µM (inactive)"}
{"molecule": "O=C1/C(=C/c2cccnc2)CCC/C1=C\\c1cccnc1", "EC50": "> 40 µM (inactive)"}
{"molecule": "O=C(O)c1ccc(O)c(N2C(=O)Nc3ccccc3N2O)c1", "EC50": "> 40 µM (inactive)"}
{"molecule": "CCC(C)OC(=O)C1C(c2ccccc2)C(C(=O)O)C1c1ccccc1", "note": "(configuration not stated)", "EC50": "> 40 µM (inactive)"}
{"molecule": "COc1ccc(/C(O)=C/C(=O)C(=O)Nc2c(C)n(C)n(-c3ccccc3)c2=O)cc1", "EC50": "> 40 µM (inactive)"}
{"molecule": "C/C(=N\\NC(=O)c1ccccc1O)C1C(=O)c2ccccc2C1=O", "EC50": "> 40 µM (inactive)"}
{"molecule": "O=[N+]([O-])c1cc(S(=O)(=O)N2CCCCCC2)ccc1F", "EC50": "> 40 µM (inactive)"}
{"molecule": "c1ccc(-c2cc(N3CCOCC3)nc3ccccc23)cc1", "EC50": "> 40 µM (inactive)"}
{"molecule": "COc1ccc(C(=O)C(CN2CCOCC2)c2ccccc2)cc1F", "note": "(configuration not stated)", "EC50": "> 40 µM (inactive)"}
{"molecule": "N=c1c2c(-c3ccccc3)c(-c3ccccc3)n(Cc3ccco3)c2ncn1CCCn1ccnc1", "EC50": "> 40 µM (inactive)"}
{"molecule": "CCCNC(=O)CCC(NS(=O)(=O)c1ccc(C)cc1)C(=O)NCCC", "note": "(configuration not stated)", "EC50": "> 40 µM (inactive)"}
{"molecule": "NC(=S)N/N=C/c1coc2cc(Cl)ccc2c1=O", "EC50": "> 40 µM (inactive)"}
{"molecule": "Cc1ccc(S(=O)(=O)C(C#N)c2nc3ccccc3nc2N2CCCC2)cc1", "note": "(configuration not stated)", "EC50": "> 40 µM (inactive)"}
{"molecule": "CCCCCC(=O)N1CCN(CCN=CC2=C(O)CC(c3ccc(OC)c(OC)c3)CC2=O)CC1", "note": "(configuration not stated)", "EC50": "> 40 µM (inactive)"}
{"molecule": "Nc1cccc2c1C(=O)N(C(=O)c1ccc(Cl)c(S(=O)(=O)N3CCCCCC3)c1)C2=O", "EC50": "> 40 µM (inactive)"}
{"molecule": "CS(=O)(=O)c1nc(-c2ccco2)cc(C(F)(F)F)n1", "EC50": "> 40 µM (inactive)"}
{"molecule": "CCCCC(=Nc1ccc(N)cc1)C1=C(O)C(C(=O)OC)C(C)(C)CC1=O", "note": "(configuration not stated)", "EC50": "> 40 µM (inactive)"}
{"molecule": "Cc1ccc(S(=O)(=O)Nc2ccccc2/C=N/c2nc3ccccc3n2C(C)C)cc1", "EC50": "> 40 µM (inactive)"}
{"molecule": "CCOc1ccc(C(=O)C(CN2CCOCC2)c2ccccc2)cc1", "note": "(configuration not stated)", "EC50": "> 40 µM (inactive)"}
{"molecule": "Cc1nc(SC(C)C)[nH]c(=O)c1Cc1ccccc1", "EC50": "> 40 µM (inactive)"}
{"molecule": "COc1ccc(N(C)C(=S)Nc2ccc3nc(C)c(C)nc3c2)cc1", "EC50": "> 40 µM (inactive)"}
{"molecule": "O=C(CCC1CCCC1)c1c(O)c2ccccc2oc1=O", "EC50": "> 40 µM (inactive)"}
{"molecule": "O=C1c2ccccc2NC(c2cnc3ccccc3n2)N1O", "note": "(configuration not stated)", "EC50": "> 40 µM (inactive)"}
{"molecule": "CCOC(=O)C(=Cc1ccc(F)cc1)C(=O)OCC", "EC50": "> 40 µM (inactive)"}
{"molecule": "Fc1cccc2sc(Nc3nnc(-c4ccco4)o3)nc12", "EC50": "> 40 µM (inactive)"}
{"molecule": "c1cncc(-c2nn[nH]n2)c1", "EC50": "> 40 µM (inactive)"}
{"molecule": "CCC1CCCCN1S(=O)(=O)c1ccc(S(=O)(=O)N(Cc2cccs2)C2CC2)cc1", "note": "(configuration not stated)", "EC50": "> 40 µM (inactive)"}
{"molecule": "C=CCN(CC=C)c1nc2ccccc2nc1C(C#N)C(=O)OC(C)C", "note": "(configuration not stated)", "EC50": "> 40 µM (inactive)"}
{"molecule": "Cc1ccc(C)c(N2CCN(S(=O)(=O)c3c(C)noc3/C=C/N(C)C)CC2)c1", "EC50": "> 40 µM (inactive)"}
{"molecule": "Cc1cc(N2C(=O)CC(Cc3ccccc3)C2=O)no1", "note": "(configuration not stated)", "EC50": "> 40 µM (inactive)"}
{"molecule": "COc1ccccc1N(CN1CCCC1=O)C(=O)c1c(F)cccc1F", "EC50": "> 40 µM (inactive)"}
{"molecule": "CCOC(=O)c1c(C)oc2c1c(C(c1cccnc1)N1CCOCC1)c(O)c1ccccc12", "note": "(configuration not stated)", "EC50": "> 40 µM (inactive)"}
{"molecule": "CN1C(=O)C(Cl)(Cl)C(=O)c2ccccc21", "EC50": "> 40 µM (inactive)"}
{"molecule": "O=C1CC(c2ccccc2)CC(O)=C1C=NCCN1CCOCC1", "note": "(configuration not stated)", "EC50": "> 40 µM (inactive)"}
{"molecule": "COCCOC(=O)/C(=C/c1ccc(OC(=O)c2ccccc2)cc1)C(C)=O", "EC50": "> 40 µM (inactive)"}
{"molecule": "CCc1c(C)c(C#N)c2nc3ccccc3n2c1Cl", "EC50": "> 40 µM (inactive)"}
{"molecule": "Cc1[nH]nc2nc3c(c(OC(=O)c4ccccc4)c12)c(=O)n(C)c(=O)n3C", "EC50": "> 40 µM (inactive)"}
{"molecule": "COc1cc(OC)cc(-c2nc3ccccc3c(=O)n2OC(=O)c2ccc(C)c(C)c2)c1", "EC50": "> 40 µM (inactive)"}
{"molecule": "COc1ccc(C(CNC(=O)c2cccc(Br)c2)N2CCCC2)cc1", "note": "(configuration not stated)", "EC50": "> 40 µM (inactive)"}
{"molecule": "COC(=O)C1=C(N)OC2=C(C(=O)CC(C)(C)C2)C1c1cccs1", "note": "(configuration not stated)", "EC50": "> 40 µM (inactive)"}
{"molecule": "C=C(C(=O)c1ccccc1)C(C)C(=C)C(=O)c1ccccc1", "EC50": "> 40 µM (inactive)"}
{"molecule": "COc1ccccc1-c1c(C)oc2cc(OC(=O)c3ccco3)ccc2c1=O", "EC50": "> 40 µM (inactive)"}
{"molecule": "COc1ccc(NC(=S)N2CCN(CCN=CC3=C(O)CC(c4ccccc4)CC3=O)CC2)cc1", "note": "(configuration not stated)", "EC50": "> 40 µM (inactive)"}
{"molecule": "CC1C/C(=C\\c2cccnc2)C(=O)/C(=C/c2cccnc2)C1", "note": "(configuration not stated)", "EC50": "> 40 µM (inactive)"}
{"molecule": "O=C(CSc1nc2ccccc2o1)c1cc2ccccc2oc1=O", "EC50": "> 40 µM (inactive)"}
{"molecule": "O=C1NC(=O)N(CCC2=CCCCC2)C(=O)/C1=C\\c1cccs1", "EC50": "> 40 µM (inactive)"}
{"molecule": "O=C(Nc1ccc(S(=O)(=O)N2CCc3ccccc3C2)cc1)c1ccccc1", "EC50": "> 40 µM (inactive)"}
{"molecule": "COc1ccc(C(=O)On2c(-c3ccc(Br)cc3)nc3ccccc3c2=O)cc1", "EC50": "> 40 µM (inactive)"}
{"molecule": "N#Cc1ccc(-c2ccc(OCC(=O)NCCc3ccccc3)cc2)cc1", "EC50": "> 40 µM (inactive)"}
{"molecule": "C=C(C)CN(CC)C(=O)COc1ccc(S(=O)(=O)Nc2ccc(OC)cc2)cc1", "EC50": "> 40 µM (inactive)"}
{"molecule": "CCCCC(=Nc1ccccc1OC)C1=C(O)CC(c2ccccc2)CC1=O", "note": "(configuration not stated)", "EC50": "> 40 µM (inactive)"}
{"molecule": "Cc1nc2c(=O)n(C)c(=O)n(C)c2nc1Cl", "EC50": "> 40 µM (inactive)"}
{"molecule": "Cc1[nH]n(-c2ccccc2)c(=O)c1N=Nc1nccs1", "EC50": "> 40 µM (inactive)"}
